For 19 compounds, IC50 results are on record in patent US20260250290A1 (BRISTOL-MYERS SQUIBB COMPANY, priority 2023, published 2026).

In this experiment the target is T1, full length SGK1 (Homo sapiens, UniProt O00141).
T1 construct: 125 μM full length SGK1 (Life Technologies Part #PR7358A); purchased Life Technologies PR7358A
T1 sequence (O00141 1-431): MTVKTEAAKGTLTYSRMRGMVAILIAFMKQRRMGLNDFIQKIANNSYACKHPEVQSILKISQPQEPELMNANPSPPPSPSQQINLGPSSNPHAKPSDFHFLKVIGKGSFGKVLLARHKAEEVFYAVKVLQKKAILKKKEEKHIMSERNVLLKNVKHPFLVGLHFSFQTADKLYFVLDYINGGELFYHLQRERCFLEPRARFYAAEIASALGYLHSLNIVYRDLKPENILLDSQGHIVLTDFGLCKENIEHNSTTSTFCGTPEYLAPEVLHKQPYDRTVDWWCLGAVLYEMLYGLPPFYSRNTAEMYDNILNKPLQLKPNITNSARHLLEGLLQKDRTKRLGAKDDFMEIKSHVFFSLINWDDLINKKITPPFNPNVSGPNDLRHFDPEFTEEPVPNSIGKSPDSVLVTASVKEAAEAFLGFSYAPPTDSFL
Nature of the experiment: SGK1 inhibition Assay A (Caliper LabChip electrophoretic separation of fluorescent peptide substrate and phosphorylated product). The note with it: Assay A; 20 μM ATP, 40 min incubation; read-out: SGK1 IC50. Type of experiment: biochemical.

For orientation: IC50 means the concentration that gives 50% inhibition. Take `CC(=O)N1CC=C(c2cc(N3CCC[C@@H](NC(=O)c4ccc5c(c4)OCO5)C3)c3c(N)ncnn23)C1` [Example 467, (R)-N-(1-(7-(1-acetyl-2,5-dihydro-1H-pyrrol-3-yl)-4-aminopyrrolo[2,1-f][1,2,4]triazin-5-yl)piperidin-3-yl)benzo[d][1,3]dioxole-5-carboxamide]: the concentration for half-maximal inhibition (IC50) came to 64 nM.

As for `CC(=O)N1CC=C(c2cc(N3CCC[C@@H](NC(=O)c4ccc(S(C)(=O)=O)cc4)C3)c3c(N)ncnn23)C1` [Example 468, (R)-N-(1-(7-(1-acetyl-2,5-dihydro-1H-pyrrol-3-yl)-4-aminopyrrolo[2,1-f][1,2,4]triazin-5-yl)piperidin-3-yl)-4-(methylsulfonyl)benzamide], the half-inhibitory concentration (IC50) was found to be 26 nM.

On to `CC(=O)N1CC=C(c2cc(N3CCC[C@@H](NC(=O)c4ccccc4N(C)C)C3)c3c(N)ncnn23)C1` [Example 470, (R)-N-(1-(7-(1-acetyl-2,5-dihydro-1H-pyrrol-3-yl)-4-aminopyrrolo[2,1-f][1,2,4]triazin-5-yl)piperidin-3-yl)-2-(dimethylamino)benzamide], for which the IC50 came out at 75 nM.

Consider `CC(=O)N1CC=C(c2cc(N3CCC[C@@H](NC(=O)c4nn(-c5ccccc5)nc4C)C3)c3c(N)ncnn23)C1` [Example 471, (R)-N-(1-(7-(1-acetyl-2,5-dihydro-1H-pyrrol-3-yl)-4-aminopyrrolo[2,1-f][1,2,4]triazin-5-yl)piperidin-3-yl)-5-methyl-2-phenyl-2H-1,2,3-tricazole-4-arboxamide], for which the half-inhibitory concentration (IC50) stood at 146 nM.

In the case of `CC(=O)N1CC=C(c2cc(N3CCC[C@@H](NC(=O)c4sc(C)nc4C)C3)c3c(N)ncnn23)C1` [Example 472, (R)-N-(1-(7-(1-acetyl-2,5-dihydro-1H-pyrrol-3-yl)-4-aminopyrrolo[2,1-f][1,2,4]triazin-5-yl)piperidin-3-yl)-2,4-dimethylthiazole-5-carboxamide], the half-inhibitory concentration (IC50) amounted to 62 nM.

For `CC(=O)N1CC=C(c2cc(N3CCC[C@@H](NC(=O)c4snnc4C)C3)c3c(N)ncnn23)C1` [Example 473, (R)-N-(1-(7-(1-acetyl-2,5-dihydro-1H-pyrrol-3-yl)-4-aminopyrrolo[2,1-f][1,2,4]triazin-5-yl)piperidin-3-yl)-4-methyl-1,2,3-thiadiazole-5-carboxamide], the concentration for half-maximal inhibition (IC50) was found to be 107 nM.

Turning to `COc1nc(C)c(C(=O)N[C@@H]2CCCN(c3cc(C4=CCN(C(C)=O)C4)n4ncnc(N)c34)C2)s1` [Example 474, (R)-N-(1-(7-(1-acetyl-2,5-dihydro-1H-pyrrol-3-yl)-4-aminopyrrolo[2,1-f][1,2,4]triazin-5-yl)piperidin-3-yl)-2-methoxy-4-methylthiazole-5-carboxamide], the concentration for half-maximal inhibition (IC50) came to 45 nM.

With `COC(=O)C12CC(C(=O)N[C@@H]3CCCN(c4cc(C5=CCN(C(C)=O)C5)n5ncnc(N)c45)C3)(C1)C2` [Example 478, Methyl(R)-3-((1-(7-(1-acetyl-2,5-dihydro-1H-pyrrol-3-yl)-4-aminopyrrolo[2,1-f][1,2,4]triazin-5-yl)piperidin-3-yl)carbamoyl)bicyclo[1.1.1]pentane-1-carboxylate], the IC50 turned out to be 771 nM.

Regarding `COC(=O)N1CC=C(c2cc(N3CCC[C@@H](NC(=O)c4ccc(C(F)F)s4)C3)c3c(N)ncnn23)C1` [Example 480, Methyl (R)-3-(4-amino-5-(3-(5-(difluoromethyl)thiophene-2-carboxamido)piperidin-1-yl)pyrrolo[2,1-f][1,2,4]triazin-7-yl)-2,5-dihydro-1H-pyrrole-1-carboxylate], the IC50 came to 3 nM.

Turning to `Nc1ncnn2c(-c3ccnc(C(F)F)c3)cc(N3CCC[C@@H](NC(=O)c4sc(Cl)cc4O)C3)c12` [Example 481, (R)-N-(1-(4-amino-7-(2-(difluoromethyl)pyridin-4-yl)pyrrolo[2,1-f][1,2,4]triazin-5-yl)piperidin-3-yl)-5-chloro-3-hydroxythiophene-2-carboxamide], the 50% inhibitory concentration (IC50) came to 16 nM.

Consider `Nc1ncnn2c(-c3ccnc(C(F)F)c3)cc(N3CCC[C@@H](NC(=O)c4ccc(Cl)s4)C3)c12` [Example 483, (R)-N-(1-(4-amino-7-(2-(difluoromethyl)pyridin-4-yl)pyrrolo[2,1-f][1,2,4]triazin-5-yl)piperidin-3-yl)-5-chlorothiophene-2-carboxamide], for which the half-maximal inhibitory concentration (IC50) turned out to be 4 nM.

As for `Nc1ncnn2c(-c3ccnc(C(F)F)c3)cc(N3CCC[C@@H](NC(=O)c4cccs4)C3)c12` [Example 484, (R)-N-(1-(4-amino-7-(2-(difluoromethyl)pyridin-4-yl)pyrrolo[2,1-f][1,2,4]triazin-5-yl)piperidin-3-yl)thiophene-2-carboxamide], the concentration for half-maximal inhibition (IC50) was found to be 4 nM.

Regarding `Cc1nc(C)c(C(=O)N[C@@H]2CCCN(c3cc(-c4ccnc(C(F)F)c4)n4ncnc(N)c34)C2)s1` [Example 485, (R)-N-(1-(4-amino-7-(2-(difluoromethyl)pyridin-4-yl)pyrrolo[2,1-f][1,2,4]triazin-5-yl)piperidin-3-yl)-2,4-dimethylthiazole-5-carboxamide], the 50% inhibitory concentration (IC50) was 26 nM.

Regarding `CC(C)c1cc(C(=O)N[C@@H]2CCCN(c3cc(-c4ccnc(C(F)F)c4)n4ncnc(N)c34)C2)[nH]n1` [Example 486, (R)-N-(1-(4-amino-7-(2-(difluoromethyl)pyridin-4-yl)pyrrolo[2,1-f][1,2,4]triazin-5-yl)piperidin-3-yl)-3-isopropyl-1H-pyrazole-5-carboxamide], the IC50 was 27 nM.

On to `N#Cc1ccc(-c2cc(N3CCC[C@@H](NC(=O)c4ccc(C(F)F)s4)C3)c3c(N)ncnn23)cn1` [Example 487, (R)-N-(1-(4-amino-7-(6-cyanopyridin-3-yl)pyrrolo[2,1-f][1,2,4]triazin-5-yl)piperidin-3-yl)-5-(difluoromethyl)thiophenc-2-carboxamide], for which the IC50 worked out at 3 nM.

With `Nc1ncnn2c(-c3ccnc(C(F)F)c3)cc(N3CCC[C@@H](NC(=O)c4cc5ccccc5[nH]4)C3)c12` [Example 488, (R)-N-(1-(4-amino-7-(2-(difluoromethyl)pyridin-4-yl)pyrrolo[2,1-f][1,2,4]triazin-5-yl)piperidin-3-yl)-1H-indole-2-carboxamide], the half-inhibitory concentration (IC50) is 1 nM.

Consider `Nc1ncnn2c(-c3ccnc(C(F)F)c3)cc(N3CCC[C@@H](NC(=O)c4nc5ccccc5[nH]4)C3)c12` [Example 489, (R)-N-(1-(4-amino-7-(2-(difluoromethyl)pyridin-4-yl)pyrrolo[2,1-f][1,2,4]triazin-5-yl)piperidin-3-yl)-1H-benzo[d]imidazole-2-carboxamide], for which the IC50 came to 53 nM.

As to `CC(=O)N1CC=C(c2cc(N3CCC[C@@H](NC(=O)c4cc5cnccc5[nH]4)C3)c3c(N)ncnn23)C1` [Example 490, (R)-N-(1-(7-(1-acetyl-2,5-dihydro-1H-pyrrol-3-yl)-4-aminopyrrolo[2,1-f][1,2,4]triazin-5-yl)piperidin-3-yl)-1H-pyrrolo[3,2-c]pyridine-2-carboxamide], the IC50 came to 24 nM.

In the case of `COc1ccc2[nH]c(C(=O)N[C@@H]3CCCN(c4cc(C5=CCN(C(C)=O)C5)n5ncnc(N)c45)C3)cc2c1` [Example 491, (R)-N-(1-(7-(1-acetyl-2,5-dihydro-1H-pyrrol-3-yl)-4-aminopyrrolo[2,1-f][1,2,4]triazin-5-yl)piperidin-3-yl)-5-methoxy-1H-indole-2-carboxamide], the concentration for half-maximal inhibition (IC50) was determined as 6 nM.
